This is an account of results in US20090304689A1, “METHODS FOR THE IDENTIFICATION OF POLYPEPTIDE ANTIGENS ASSOCIATED WITH DISORDERS INVOLVING ABERRANT CELL PROLIFERATION AND COMPOSITIONS USEFUL FOR THE TREATMENT OF SUCH DISORDERS” (priority 2001, published 2009).

In one series the test system is SK-BR3 cells. The series can be described thus: Anti-proliferative effect / cytotoxicity on SK-BR-3 breast tumor cells (crystal violet, FIG. 4). In kind it is cell-based, human.
The conditions of series [1]: clinical trials discontinued; cited from earlier work.

Protocol for SK-BR3 cells: SK-BR-3 human breast carcinoma cells were from The American Type Culture Collection (Rockville, Md.). […] SK-BR-3 cells were cultured in high glucose DMEM:Ham's F-12 (50:50) supplemented with 10% heat-inactivated fetal bovine serum and 2 mM 1-glutamine (all from GIBCO/BRL, Grand Island, N.Y.).
Cells were plated at the following densities in 96-well microtiter culture plates: 2×10^4 per well for SK-BR-3; 10^4 per well for HMEC, SAEC and NHEK; and 3.5×10^4 per well for human hepatocytes (pre-plated on collagen-coated plates by In Vitro Technologies) and allowed to adhere overnight in the incubator (37° C., 5% CO2). […] After a 3 day incubation, the media were removed, the cell monolayers washed once with PBS and stained with crystal violet dye (0.5% crystal violet, 20% methanol).
For all experiments, after removal of the crystal violet dye, plates were allowed to air-dry overnight. The dye was then eluted with 0.1 M sodium citrate:ethanol (50:50), pH 4.2 and the plates read in an SLT 340 ATC plate-reader at a wavelength of 540 nm. Each treatment group consisted of 4 replicates and the data are represented as mean O.D.540+/− standard error or relative to cell proliferation as compared to untreated control cells (mean+/−s.e.).

With “RITUXAN®: control, unrelated monoclonal antibody RITUXAN®”, the cell growth inhibition entry with SK-BR3 cells is reported as “did not inhibit cell growth”.
Consider `COc1cc2cc(c1Cl)N(C)C(=O)C[C@H](OC(=O)[C@H](C)N(C)C(C)=O)[C@]1(C)O[C@H]1[C@H](C)[C@@H]1C[C@@](O)(NC(=O)O1)[C@H](OC)/C=C/C=C(\C)C2` [maytansine], for which, in series [1], the “adverse effects in clinical trials” value is “peripheral neuropathy”.
